Measurements published in patent publication US9012496B2, “Pharmaceutical compositions of (R)-1-(2,2-difluorobenzo[D][1,3]dioxol-5-yl)-N-(1-(2,3-dihydroxypropyl)-6-fluoro-2-(1-hydroxy-2-methylpropan-2-yl)-1H-indol-5-yl)cyclopropanecarboxamide and administration thereof” (Vertex Pharmaceuticals Incorported, priority 2012, dated 2015).

Target: T1, ΔF508-CFTR (Homo sapiens, UniProt P13569, DEL508-508)
T1 construct: expressed in transfected cells; host or cells: NIH3T3 mouse fibroblasts (optical membrane potential assay, whole-cell and single-channel recordings); Fisher rat epithelial (FRT) cells (Ussing chamber)
Assay: Assays for detecting and measuring ΔF508-CFTR correction properties (membrane potential optical assay; electrophysiological assays)
Type: cell-based
Excerpt: Assays for Detecting and Measuring ΔF508-CFTR Correction Properties of Compounds
Membrane potential optical methods for assaying ΔF508-CFTR modulation properties of compounds.
The optical membrane potential assay utilized voltage-sensitive FRET sensors described by Gonzalez and Tsien (See Gonzalez, J. E. and R. Y. Tsien (1995) “Voltage sensing by fluorescence resonance energy transfer in single cells” Biophys J 69(4): 1272-80, and Gonzalez, J. E. and R. Y. Tsien (1997) “Improved indicators of cell membrane potential that use fluorescence resonance energy transfer” Chem Biol 4(4): 269-77) in combination with instrumentation for measuring fluorescence changes such as the Voltage/Ion Probe Reader (VIPR) (See, Gonzalez, J. E., K. Oades, et al. (1999) “Cell-based assays and instrumentation for screening ion-channel targets” Drug Discov Today 4(9): 431-439).
These voltage sensitive assays are based on the change in fluorescence resonant energy transfer (FRET) between the membrane-soluble, voltage-sensitive dye, DiSBAC2(3), and a fluorescent phospholipid, CC2-DMPE, which is attached to the outer leaflet of the plasma membrane and acts as a FRET donor. […] The changes in fluorescence emission were monitored using VIPR™ II, which is an integrated liquid handler and fluorescent detector designed to conduct cell-based screens in 96- or 384-well microtiter plates. […]

T1 sequence (P13569 with tags, fused parts or gaps DEL508-508): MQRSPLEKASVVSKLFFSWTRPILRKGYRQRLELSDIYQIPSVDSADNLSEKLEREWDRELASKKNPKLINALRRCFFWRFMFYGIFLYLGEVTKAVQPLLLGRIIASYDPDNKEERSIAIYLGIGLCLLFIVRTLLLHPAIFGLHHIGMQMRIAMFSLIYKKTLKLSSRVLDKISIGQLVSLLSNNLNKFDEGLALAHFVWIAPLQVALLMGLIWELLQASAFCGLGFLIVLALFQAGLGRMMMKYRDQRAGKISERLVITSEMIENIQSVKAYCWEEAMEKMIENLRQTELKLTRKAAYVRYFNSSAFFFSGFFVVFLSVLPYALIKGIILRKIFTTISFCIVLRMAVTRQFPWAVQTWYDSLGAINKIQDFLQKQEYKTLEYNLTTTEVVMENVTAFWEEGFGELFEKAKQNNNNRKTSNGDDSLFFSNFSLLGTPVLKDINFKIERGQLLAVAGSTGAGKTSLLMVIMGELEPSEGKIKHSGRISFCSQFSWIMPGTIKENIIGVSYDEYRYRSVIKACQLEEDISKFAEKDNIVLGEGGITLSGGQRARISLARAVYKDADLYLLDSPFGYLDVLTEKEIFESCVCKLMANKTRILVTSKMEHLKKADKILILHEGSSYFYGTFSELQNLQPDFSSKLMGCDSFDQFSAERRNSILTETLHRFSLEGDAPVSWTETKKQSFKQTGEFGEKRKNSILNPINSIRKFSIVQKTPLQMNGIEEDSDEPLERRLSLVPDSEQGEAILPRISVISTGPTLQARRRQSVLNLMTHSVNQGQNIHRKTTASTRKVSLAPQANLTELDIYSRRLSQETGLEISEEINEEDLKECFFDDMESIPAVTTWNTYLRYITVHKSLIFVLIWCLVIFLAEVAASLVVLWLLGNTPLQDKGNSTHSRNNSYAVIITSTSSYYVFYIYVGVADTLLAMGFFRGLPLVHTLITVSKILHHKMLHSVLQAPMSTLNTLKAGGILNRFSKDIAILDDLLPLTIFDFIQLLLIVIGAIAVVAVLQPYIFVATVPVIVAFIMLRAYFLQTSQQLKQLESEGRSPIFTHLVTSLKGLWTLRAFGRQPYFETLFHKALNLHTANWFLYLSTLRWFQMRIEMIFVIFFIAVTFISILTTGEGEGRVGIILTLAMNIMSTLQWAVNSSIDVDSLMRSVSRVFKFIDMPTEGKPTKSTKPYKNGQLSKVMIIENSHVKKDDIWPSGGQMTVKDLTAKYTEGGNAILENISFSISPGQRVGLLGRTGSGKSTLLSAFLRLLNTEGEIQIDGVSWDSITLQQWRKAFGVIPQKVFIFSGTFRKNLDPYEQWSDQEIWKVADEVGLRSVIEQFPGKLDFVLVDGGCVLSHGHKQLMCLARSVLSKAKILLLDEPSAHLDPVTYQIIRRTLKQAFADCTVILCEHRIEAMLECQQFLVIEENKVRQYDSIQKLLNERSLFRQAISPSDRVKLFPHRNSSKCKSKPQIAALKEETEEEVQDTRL

EC50 (NIH3T3 mouse fibroblasts stably expressing ΔF508-CFTR, read-out: BinnedEC50): ≤ 2000 nM
BinnedMaxEfficacy (PercentActivity bins): +++ (100.0 < +++)
SMILES: CC(C)(CO)c1cc2cc(NC(=O)C3(c4ccc5c(c4)OC(F)(F)O5)CC3)c(F)cc2n1C[C@@H](O)CO [Compound 1, (R)-1-(2,2-difluorobenzo[d][1,3]dioxol-5-yl)-N-(1-(2,3-dihydroxypropyl)-6-fluoro-2-(1-hydroxy-2-methylpropan-2-yl)-1H-indol-5-yl)cyclopropanecarboxamide]
